In data set [1] the test system is α-1,4-glucan lyase. The data set is described as follows: Effect of alcohols on activity and stability of the lyase (AF yield). It counts as biochemical, Gracilariopsis lemaneiformis. On the procedure:
1-propanol, 2-propanol and 1-butanol were tested at the following concentrations (0%, 1%, 5% and 10%).
Ethanol was tested at the following concentrations (0, 1, 3, 5, 7, 9, 11, 13, 15%).

Data set [2] deals with α-1,4-glucan lyase. The data set is described as follows: Degradation studies: AF released by the lyase from various substrates. It counts as biochemical, Gracilariopsis lemaneiformis. The following applies: for activity of the lyase towards maltosaccharides / degradation by the lyase: in words; for AF released: substrate 10 mg/ml, 10 mM HOAc-NaOAc pH 3.8, 40 min at 45° C., 100 ul. The procedure:
Reaction conditions: The reaction mixture contained 10 mM of HOAc-NaOAc (pH 3.8). The substrate concentration was 10 mg/ml. The final volume was 100 ul after the addition of lyase and water. The reaction time was 40 min at 45° C.

Data set [3] relates to α-1,4-glucan lyase. The data set is described as follows: Reversible and irreversible inhibitors of the lyase. The class given is biochemical, Gracilariopsis lemaneiformis.
The nature of data set [4]: Isoelectric focusing of the α-1,4-glucan lyases. The note with it: isoelectrofocusing, pH gradient 3-9. The class given is physicochemical. An excerpt: The relative migration rates were estimated from native PAGE on gels with 8-25% gradient; the pI values were estimated by isoelectrofocusing on gels with a pH gradient of 3-9.
FIG. 2. Isoelectric focusing of the α-1,4-glucan lyases on a gel with a pH gradient of pH 3 to pH 9. The gel was stained with PhastGel Blue R.

The values below come from patent publication US6541237B1, “A-1,4-glucan lyase and its use in the production of 1.5-androfructose” (Danisco A/S, priority 1994, dated 2003).

As for 1-butanol, in the data set on α-1,4-glucan lyase [1] (optimal concentration 5%, after 3-day incubation), the “increase of AF yield” value amounted to 52%. With 1-propanol, the AF yield was 80 µmol in the data set on α-1,4-glucan lyase [1] (1% (v/v), reaction time 1 day); 280 µmol in the data set on α-1,4-glucan lyase [1] (1% (v/v), reaction time 3 days); 530 µmol with α-1,4-glucan lyase [1] (1% (v/v), reaction time 6 days); 803 µmol in the data set on α-1,4-glucan lyase [1] (1% (v/v), reaction time 10 days); 115 µmol in the data set with α-1,4-glucan lyase [1] (5% (v/v), reaction time 1 day); 367 µmol in the data set on α-1,4-glucan lyase [1] (5% (v/v), reaction time 3 days). In addition, the AF yield in the data set on α-1,4-glucan lyase [1] (5% (v/v), reaction time 6 days) turned out to be 605 µmol; with α-1,4-glucan lyase [1] (5% (v/v), reaction time 10 days), 853 µmol; in the data set with α-1,4-glucan lyase [1] (10% (v/v), reaction time 1 day), 107 µmol; in the data set with α-1,4-glucan lyase [1] (10% (v/v), reaction time 3 days), 307 µmol; with α-1,4-glucan lyase [1] (10% (v/v), reaction time 6 days), 456 µmol; in the data set with α-1,4-glucan lyase [1] (10% (v/v), reaction time 10 days) it was 583 µmol. For the same molecule, in the data set on α-1,4-glucan lyase [1] (optimal concentration 5%, after 6 days of incubation), the “increase of AF yield” value is reported as 34%. As for `CC(C)O` [2-propanol], in the data set with α-1,4-glucan lyase [1] (optimal concentration 1%, after 10 days incubation), the “increase of AF yield” value is on record as 20%. `CCO` [Ethanol]: the “increase of AF yield” value in the data set with α-1,4-glucan lyase [1] (optimal concentration 3%, 10 days incubation) is reported as 16%; with α-1,4-glucan lyase [1] (optimal concentration 5%, 7 days incubation) it was 12%. For `OC[C@H]1O[C@H](O[C@H]2[C@H](O)[C@@H](O)[C@@H](O[C@H]3[C@H](O)[C@@H](O)[C@@H](O[C@H]4[C@H](O)[C@@H](O)C(O)O[C@@H]4CO)O[C@@H]3CO)O[C@@H]2CO)[C@H](O)[C@@H](O)[C@@H]1O` (stereo partly drawn) [Maltotetraose], in the data set with α-1,4-glucan lyase [2], the “activity of the lyase towards maltosaccharides” value is “highest activity” and the AF released is listed as 670 nmol.

In the case of `OCC1OC(OC2C(CO)OC(OC3C(CO)OC(O)C(O)C3O)C(O)C2O)C(O)C(O)C1O` (stereo not drawn) [Maltotriose], in the data set with α-1,4-glucan lyase [2], the “activity of the lyase towards maltosaccharides” value is on record as “lower activity” and the AF released is reported as 654 nmol. For `O=C(O)c1cc[c]([Hg][Cl])cc1` [PCMB, p-chloromercuribenzoic acid], the “decrease of lyase activity” value in the data set with α-1,4-glucan lyase [3] (2 mM PCMB, same assay conditions as for deoxyjirimycin (substrate 2% amylopectin)) is on record as 60%. Besides, in the data set with α-1,4-glucan lyase [3] (final concentration 2 mM PCMB), the “inhibition of the lyase activity” value turned out to be 96%.

As to `OC[C@H]1NC[C@H](O)[C@@H](O)[C@@H]1O` [deoxyjirimycin], in the data set on α-1,4-glucan lyase [3] (25 μM inhibitor, substrate amylopectin 2%, algal lyase), the remaining lyase activity was 10.4%. The lyase activity result in the data set on α-1,4-glucan lyase [3] (100 μM inhibitor, substrate amylopectin 2%) is “completely lost”. Regarding `OC[C@H]1O[C@H](OC[C@H]2OC(O)[C@H](O)[C@@H](O)[C@@H]2O)[C@H](O)[C@@H](O)[C@@H]1O` (stereo partly drawn) [isomaltose], the “degradation by the lyase” value in the data set with α-1,4-glucan lyase [2] is listed as “not able to degrade”.

For `OC[C@H]1O[C@H](O[C@H]2[C@H](O)[C@@H](CO)OC(O)[C@@H]2O)[C@H](O)[C@@H](O)[C@@H]1O` (stereo partly drawn) [nigerose], in the data set on α-1,4-glucan lyase [2], the “degradation by the lyase” value is recorded as “slow rate”.

Consider `OC[C@H]1O[C@H](O[C@H]2O[C@H](CO)[C@@H](O)[C@H](O)[C@H]2O)[C@H](O)[C@@H](O)[C@@H]1O` [trehalose], for which the “degradation by the lyase” value in the data set with α-1,4-glucan lyase [2] is recorded as “not able to degrade”. Still for that read-out and setting: under `OC[C@H]1O[C@@H]2O[C@H]3[C@H](O)[C@@H](O)[C@@H](O[C@H]4[C@H](O)[C@@H](O)[C@@H](O[C@H]5[C@H](O)[C@@H](O)[C@@H](O[C@H]6[C@H](O)[C@@H](O)[C@@H](O[C@H]7[C@H](O)[C@@H](O)[C@@H](O[C@H]8[C@H](O)[C@@H](O)[C@@H](O[C@H]1[C@H](O)[C@H]2O)O[C@@H]8CO)O[C@@H]7CO)O[C@@H]6CO)O[C@@H]5CO)O[C@@H]4CO)O[C@@H]3CO` [β-cyclodextrins] stands “not able to degrade”. In the case of Maltoheptaose, in the data set on α-1,4-glucan lyase [2], the “activity of the lyase towards maltosaccharides” value is listed as “lower activity” and the AF released is listed as 865 nmol. As for Maltohexaose, the AF released in the data set on α-1,4-glucan lyase [2] amounted to 826 nmol. Regarding Maltopentaose, in the data set with α-1,4-glucan lyase [2], the “activity of the lyase towards maltosaccharides” value is “highest activity” and the AF released was determined as 674 nmol. nigeran tetrasaccharide: the “degradation by the lyase” value with α-1,4-glucan lyase [2] was “not able to degrade”. The same measure, in the same setting: under panose stands “slow rate”; under pullulan, “not able to degrade”.

B1: MC-lyase: lyase isolated from the fungus Morchella costata, ATCC (protein)
chain: MAGFSDPLNFCKAEDYYSVALDWKGPQKIIGVDTTPPKSTKFPKNWHGVNLRFDDGTLGVVQFIRPCVWRVRYDPGFKTSDEYGDENTRTIVQDYMSTLSNKLDTYRGLTWETKCEDSGDFFTFSSKVTAVEKSERTRNKVGDGLRIHLWKSPFRIQVVRTLTPLKDPYPIPNVAAAEARVSDKVVWQTSPKTFRKNLHPQHKMLKDTVLDIVKPGHGEYVGWGEMGGIQFMKEPTFMNYFNFDNMQYQQVYAQGALDSREPLYHSDPFYLDVNSNPEHKNITATFIDNYSQIAIDFGKTNSGYIKLGTRYGGIDCYGISADTVPEIVRLYTGLVGRSKLKPRYILGAHQACYGYQQESDLYSVVQQYRDCKFPLDGIHVDVDVQDGFRTFTTNPHTFPNPKEMFTNLRNNGIKCSTNITPVISINNREGGYSTLLEGVDKKYFIMDDRYTEGTSGNAKDVRYMYYGGGNKVEVDPNDVNGRPDFKDNYDFPANFNSKQYPYHGGVSYGYGNGSAGFYPDLNRKEVRIWWGMQYKYLFDMGLEFVWQDMTTPAIHTSYGDMKGLPTRLLVTSDSVTNASEKKLAIETWALYSYNLHKATWHGLSRLESRKNKRNFILGRGSYAGAYRFAGLWTGDNASNWEFWKISVSQVLSLGLNGVCIAGSDTGGFEPYRDANGVEEKYCSPELLIRWYTGSFLLPWLRNHYVKKDRKWFQEPYSYPKHLETHPELADQAWLYKSVLEICRYYVELRYSLIQLLYDCMFQNVVDGMPITRSMLLTDTEDTTFFNESQKFLDNQYMAGDDILVAPILHSRKEIPGENRDVYLPLYHTWYPSNLRPWDDQGVALGNPVEGGSVINYTARIVAPEDYNLFHSVVPVYVREGAIIPQIEVRQWTGQGGANRIKFNIYPGKDKEYCTYLDDGVSRDSAPEDLPQYKETHEQSKVEGAEIAKQIGKKTGYNISGTDPEAKGYHRKVAVTQTSKDKTRTVTIEPKHNGYDPSKEVGDYYTIILWYAPGFDGSIVDVSKTTVNVEGGVEHQVYKNSDLHTVVIDVKEVIGTTKSVKITCTAA
In turn, B1 displayed a pI in data set [4] of 4.5.

B2: GLsc1-lyase: lyase purified from Gracilariopsis lemaneiformis collected in Santa Cruz, Calif. (protein)
chain: TALSDKQTAISIGPDNPDGINYQNYDYIPVAGFTPLSNTNWYAAGSSTPGGITDWTATMNVKFDRIDNPSYSNNHPVQIQVTSYNNNSFRIRFNPDGPIRDVSRGPILKQQLTWIRNQELAQGCNPNMSFSPEGFLSFETKDLNVIIYGNCKMRVTKKDGYLVMENDECNSQSDGNKCRGLMYVDRLYGNAIASVQTNFHKDTSRNEKFYGAGEVNCRYEEQGKAPTYVLERSGLAMTNYNYDNLNYNQPDVVPPGYPDHPNYYIPMYYAAPWLVVQGCAGTSKQYSYGWFMDNVSQSYMNTGDTAWNCGQENLAYMGAQYGPFDQHFVYGDGDGLEDVVKAFSFLQGKEFEDKKLNKRSVMPPKYVFGFFQGVFGALSLLKQNLPAGENNISVQEIVEGYQDNDYPFEGLAVDVDMQDDLRVFTTKPEYWSANMVGEGGDPNNRSVFEWAHDRGLVCQTNVTCFLRNDNSGKPYEVNQTLREKQLYTKNDSLNNTDFGTTSDGPGDAYIGHLDYGGGVECDAIFPDWGRPDVAQWWGENYKKLFSIGLDFVWQDMTVPAMMPHRLGDAVNKNSGSSAPGWPNENDPSNGRYNWKSYHPQVLVTDMRYGAEYGREPMVSQRNIHAYTLCESTRREGIVGNADSLTKFRRSYIISRGGYIGNQHFGGMWVGDNSATESYLQMMLANIINMNMSCLPLVGSDIGGFTQYNDAGDPTPEDLMVRFVQAGCLLPWFRNHYDRWIESKKHGKKYQELYMYPGQKDTLKKFVEFRYRWQEVLYTAMYQNATTGEPIIKAAPMYNNDVNVYKSQNDHFLLGGHDGYRILCAPVVRENATSREVYLPVYSKWFKFGPDFDTKPLENEIQGGQTLYNYAAPLNDSPIFVREGTILPTRYTLDGVNKSINTYTDNDPLVFELFPLENNQAHGLFYHDDGGVTTNAEDFGKYSVISVKAAQEGSQMSVKFDNEVYEHQWGASFYVRVRNMGAPSNINVSSQIGQQDMQQSSVSSRAQMFTSANDGEYWVDQSTNSLWLKLPGAVIQDAAITVR
B2 registered a pI in data set [4] of 4.1.
